Measurements as given in patent US7168937B2, “Method for the enzymatic resolution of the racemates of aminomethyl-aryl-cyclohexanol derivatives” (Gruenenthal GmbH, priority 2000, dated 2007).
Where two headings read alike, the source gives them in different places.

What was measured:
Format in all cases: physicochemical
[1] = logP and logD values water/octanol; conditions: for logD: pH 7.4, water/octanol; for logP: water/octanol
[2] = logP and logD values water/cyclohexane; conditions: for ΔlogP value at pH 7.4: difference of logP water/octanol and water/cyclohexane; for ΔlogD value at pH 7.4: pH 7.4, difference of logD water/octanol and water/cyclohexane
[3] = pKa values of the compounds 1 and 2
[4] = pH 7.4, water/cyclohexane, read-out: logD value at pH 7.4 water/cyclohexane
[5] = water/cyclohexane, read-out: logP value: water/cyclohexane

SMILES	logD [1]	logP [1]	ΔlogP value at pH 7.4 [2]	ΔlogD value at pH 7.4 [2]	logD hydrocarbon water [2, 4]	logD hydrocarbon water [2, 5]	pKa [3]
CCCC(=O)O[C@H]1CC[C@](O)(c2cccc(OC)c2)[C@@H](CN(C)C)C1 (racemic) [Compound 1, (1SR,3RS,4RS)-butyric acid 3-dimethylaminomethyl-4-hydroxy-4-(3-methoxy-phenyl)-cyclohexyl ester]	1.48	2.9	0.538	0.538	0.946	2.36	8.8
COc1cccc([C@@]2(O)CC[C@H](O)C[C@@H]2CN(C)C)c1 (racemic) [Compound 2, (1RS,2RS,4SR)-2-dimethylaminomethyl-1-(3-methoxy-phenyl)-cyclohexane-1,4-diol]	-0.564	1.1	1.733	1.733	-2.3	-0.632	9.05
